# Assay results published in PubChem BioAssay (NCI).
#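 In this assay, cells in 96-well plates receive the compound at five concentrations for 48 hours. Endpoints are linearly interpolated between the surrounding concentrations. The concentration for 50% growth inhibition is given as GI50. TGI denotes the concentration required for complete inhibition of growth.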
# Assays:
# Test in all cases: NCI anticancer screen, dose series, 48 h
# [1] = tested on: 786-0 renal
# [2] = tested on: A498 renal
# [3] = tested on: A549 NSCLC
# [4] = tested on: ACHN renal
# [5] = tested on: BT-549 breast
# [6] = tested on: CAKI-1 renal
# [7] = tested on: CCRF-CEM leukemia
# [8] = tested on: COLO 205 colon
# [9] = tested on: DU-145 prostate
# [10] = tested on: EKVX NSCLC
# [11] = tested on: HCC-2998 colon
# [12] = tested on: HCT-116 colon
# [13] = tested on: HCT-15 colon
# [14] = tested on: HL-60(TB) leukemia
# [15] = tested on: HOP-62 NSCLC
# [16] = tested on: HOP-92 NSCLC
# [17] = tested on: HS 578T breast
# [18] = tested on: HT29 colon
# [19] = tested on: IGROV1 ovarian
# [20] = tested on: K-562 leukemia
# [21] = tested on: KM12 colon
# [22] = tested on: LOX IMVI melanoma
# [23] = tested on: M14 melanoma
# [24] = tested on: MALME-3M melanoma
# [25] = tested on: MCF7 breast
# [26] = tested on: MDA-MB-231 breast
# [27] = tested on: MDA-MB-435
# [28] = tested on: MDA-MB-468 breast
# [29] = tested on: MOLT-4 leukemia
# [30] = tested on: NCI-H226 lung
# [31] = tested on: NCI-H23 lung
# [32] = tested on: NCI-H460 lung
# [33] = tested on: NCI-H522 lung
# [34] = tested on: NCI/ADR-RES ovarian
# [35] = tested on: OVCAR-3 ovarian
# [36] = tested on: OVCAR-4 ovarian
# [37] = tested on: OVCAR-5 ovarian
# [38] = tested on: OVCAR-8 ovarian
# [39] = tested on: PC-3 prostate
# [40] = tested on: RPMI-8226 leukemia
# [41] = tested on: RXF 393 renal
# [42] = tested on: SF-268 CNS
# [43] = tested on: SF-295 CNS
# [44] = tested on: SF-539 CNS
# [45] = tested on: SK-MEL-2 melanoma
# [46] = tested on: SK-MEL-28 melanoma
# [47] = tested on: SK-MEL-5 melanoma
# [48] = tested on: SK-OV-3 ovarian
# [49] = tested on: SN12C renal
# [50] = tested on: SNB-19 CNS
# [51] = tested on: SNB-75 CNS
# [52] = tested on: SR leukemia
# [53] = tested on: SW-620 colon
# [54] = tested on: T-47D breast
# [55] = tested on: TK-10 renal
# [56] = tested on: U251 CNS
# [57] = tested on: UACC-257 melanoma
# [58] = tested on: UACC-62 melanoma
# [59] = tested on: UO-31 renal
smiles,measurement,setting,value
COc1c2c(cc3c1C(CCc1ccccc1)N(C)CC3)OCO2 (stereo not drawn),GI50,[1],18.7 µM
same,TGI,[1],> 100 µM
same,GI50,[2],12.1 µM
same,TGI,[2],48.3 µM
same,GI50,[3],31.5 µM
same,TGI,[3],> 100 µM
same,GI50,[4],13.5 µM
same,TGI,[4],> 100 µM
same,GI50,[5],14.3 µM
same,TGI,[5],35.5 µM
same,GI50,[6],10.5 µM
same,TGI,[6],> 100 µM
same,GI50,[7],19.2 µM
same,TGI,[7],> 100 µM
same,GI50,[8],10.4 µM
same,TGI,[8],36.5 µM
same,GI50,[9],36 µM
same,TGI,[9],> 100 µM
same,GI50,[10],30.5 µM
same,TGI,[10],> 100 µM
same,GI50,[11],18.1 µM
same,TGI,[11],61.1 µM
same,GI50,[12],4.32 µM
same,TGI,[12],> 100 µM
same,GI50,[13],22.5 µM
same,TGI,[13],> 100 µM
same,GI50,[14],4.8 µM
same,TGI,[14],26.4 µM
same,GI50,[15],8.32 µM
same,TGI,[15],> 100 µM
same,GI50,[16],5.53 µM
same,TGI,[16],56.1 µM
same,GI50,[17],14.2 µM
same,TGI,[17],67 µM
same,GI50,[18],5.9 µM
same,TGI,[18],65.3 µM
same,GI50,[19],10 µM
same,TGI,[19],62.6 µM
same,GI50,[20],17.8 µM
same,TGI,[20],> 100 µM
same,GI50,[21],21.4 µM
same,TGI,[21],70 µM
same,GI50,[22],5.31 µM
same,TGI,[22],19.4 µM
same,GI50,[23],7.57 µM
same,TGI,[23],36.5 µM
same,GI50,[24],13 µM
same,TGI,[24],27.3 µM
same,GI50,[25],14.6 µM
same,TGI,[25],43.1 µM
same,GI50,[26],10 µM
same,TGI,[26],40.7 µM
same,GI50,[27],6.25 µM
same,TGI,[27],36.5 µM
same,GI50,[28],11.7 µM
same,TGI,[28],27.4 µM
same,GI50,[29],15.8 µM
same,TGI,[29],65.1 µM
same,GI50,[30],13.8 µM
same,TGI,[30],> 100 µM
same,GI50,[31],16.2 µM
same,TGI,[31],> 100 µM
same,GI50,[32],7.61 µM
same,TGI,[32],54.3 µM
same,GI50,[33],18.4 µM
same,TGI,[33],65.4 µM
same,GI50,[34],15.6 µM
same,TGI,[34],81.1 µM
same,GI50,[35],13.8 µM
same,TGI,[35],77.3 µM
same,GI50,[36],26.4 µM
same,TGI,[36],> 100 µM
same,GI50,[37],9.57 µM
same,TGI,[37],> 100 µM
same,GI50,[38],31.3 µM
same,TGI,[38],> 100 µM
same,GI50,[39],11.3 µM
same,TGI,[39],> 100 µM
same,GI50,[40],6.07 µM
same,TGI,[40],38.2 µM
same,GI50,[41],11.8 µM
same,TGI,[41],55 µM
same,GI50,[42],17.3 µM
same,TGI,[42],> 100 µM
same,GI50,[43],4.34 µM
same,TGI,[43],28.9 µM
same,GI50,[44],10.7 µM
same,TGI,[44],35.5 µM
same,GI50,[45],24.6 µM
same,TGI,[45],98.3 µM
same,GI50,[46],15.8 µM
same,TGI,[46],59.3 µM
same,GI50,[47],13.8 µM
same,TGI,[47],26.8 µM
same,GI50,[48],27.4 µM
same,TGI,[48],> 100 µM
same,GI50,[49],10.2 µM
same,TGI,[49],> 100 µM
same,GI50,[50],21.7 µM
same,TGI,[50],> 100 µM
same,GI50,[51],11.6 µM
same,TGI,[51],54 µM
same,GI50,[52],10.6 µM
same,TGI,[52],53.3 µM
same,GI50,[53],10.3 µM
same,TGI,[53],59.6 µM
same,GI50,[54],11.3 µM
same,TGI,[54],49.2 µM
same,GI50,[55],47.2 µM
same,TGI,[55],> 100 µM
same,GI50,[56],24.5 µM
same,TGI,[56],> 100 µM
same,GI50,[57],29.3 µM
same,TGI,[57],> 100 µM
same,GI50,[58],12 µM
same,TGI,[58],43.9 µM
same,GI50,[59],8.35 µM
same,TGI,[59],> 100 µM
